In patent US12390472B2 (SUZHOU SINOVENT PHARMACEUTICALS CO., LTD., priority 2018, dated 2025):
Like-named read-outs stand apart in the source and are kept apart here.

How the values were obtained:
[1] = test system: WSU-DLCL2; assay: Methylated lysine of histone-H3 (H3K27Me3) detection by ELISA, WSU-DLCL2 cells; format: cell-based; conditions: Homo sapiens, WSUDLCL2, 168 h; WSU-DLCL2, 7 days treatment, H3K27Me3 normalized to total histone-3; read-out: IC50 of cell methylation, WSU-DLCL2
How it was run: (§1)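 Cells were treated 7 days with compound (4-fold dilutions, 20 uM-0.009 nM), then lysed hypotonically with NaCl adjusted to ~100 mM. Lysate-coated plates were probed by ELISA for H3K27Me3 and total H3 (TMB, A450). Methylation signal was normalised to total H3 before curve fitting.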

[2] = test system: Pfeiffer; assay: Methylated lysine of histone-H3 (H3K27Me3) detection by ELISA, Pfeiffer cells; format: cell-based, human; conditions: 7 days treatment, H3K27Me3 normalized to total histone-3, read-out: IC50 of cell methylation, Pfeiffer
How it was run: as §1

[3] = molecular target: EZH2 enzyme complex (Homo sapiens (Human), UniProt Q15910); assay: Test on EZH2 inhibitory activity (TR-FRET); format: biochemical; conditions: EZH2 enzyme complex 25 ng/uL, histone H3 peptide 4 uM, SAM 2 uM, 300 min; read-out: IC50 of EZH2 inhibition
Sequence of EZH2 enzyme complex (Q15910 whole entry): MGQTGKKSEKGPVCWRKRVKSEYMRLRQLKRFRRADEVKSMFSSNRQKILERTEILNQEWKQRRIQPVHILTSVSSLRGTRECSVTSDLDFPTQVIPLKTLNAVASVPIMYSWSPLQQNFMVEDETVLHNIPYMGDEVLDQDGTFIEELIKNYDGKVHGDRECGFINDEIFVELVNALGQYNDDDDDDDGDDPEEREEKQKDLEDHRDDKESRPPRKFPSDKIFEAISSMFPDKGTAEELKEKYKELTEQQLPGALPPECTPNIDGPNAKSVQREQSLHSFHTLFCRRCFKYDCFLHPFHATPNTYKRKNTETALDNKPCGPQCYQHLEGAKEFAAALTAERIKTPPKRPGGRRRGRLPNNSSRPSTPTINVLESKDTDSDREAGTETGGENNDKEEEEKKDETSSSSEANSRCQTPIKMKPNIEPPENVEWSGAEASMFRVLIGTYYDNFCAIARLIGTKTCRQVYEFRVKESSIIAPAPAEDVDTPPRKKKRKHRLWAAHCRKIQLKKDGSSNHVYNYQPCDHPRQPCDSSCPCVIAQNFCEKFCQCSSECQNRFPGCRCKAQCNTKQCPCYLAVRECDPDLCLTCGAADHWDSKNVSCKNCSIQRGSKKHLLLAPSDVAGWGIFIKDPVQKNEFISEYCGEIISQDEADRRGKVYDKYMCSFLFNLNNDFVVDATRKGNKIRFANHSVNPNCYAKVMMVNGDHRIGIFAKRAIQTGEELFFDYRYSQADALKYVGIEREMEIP
Sequence of EZH2 enzyme complex (O75530 whole entry partner): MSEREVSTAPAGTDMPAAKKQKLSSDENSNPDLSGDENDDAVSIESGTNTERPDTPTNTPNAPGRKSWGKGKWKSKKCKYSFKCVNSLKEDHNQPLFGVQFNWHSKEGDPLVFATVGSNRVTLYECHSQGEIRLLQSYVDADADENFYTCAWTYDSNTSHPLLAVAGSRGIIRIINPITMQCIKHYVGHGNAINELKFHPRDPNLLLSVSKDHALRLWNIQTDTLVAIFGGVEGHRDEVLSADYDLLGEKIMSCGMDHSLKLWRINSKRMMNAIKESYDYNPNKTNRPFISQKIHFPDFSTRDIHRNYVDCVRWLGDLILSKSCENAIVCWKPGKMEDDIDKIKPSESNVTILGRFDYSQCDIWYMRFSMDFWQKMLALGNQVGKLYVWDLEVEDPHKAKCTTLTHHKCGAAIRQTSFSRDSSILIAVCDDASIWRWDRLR
Sequence of EZH2 enzyme complex (Q15022 whole entry partner): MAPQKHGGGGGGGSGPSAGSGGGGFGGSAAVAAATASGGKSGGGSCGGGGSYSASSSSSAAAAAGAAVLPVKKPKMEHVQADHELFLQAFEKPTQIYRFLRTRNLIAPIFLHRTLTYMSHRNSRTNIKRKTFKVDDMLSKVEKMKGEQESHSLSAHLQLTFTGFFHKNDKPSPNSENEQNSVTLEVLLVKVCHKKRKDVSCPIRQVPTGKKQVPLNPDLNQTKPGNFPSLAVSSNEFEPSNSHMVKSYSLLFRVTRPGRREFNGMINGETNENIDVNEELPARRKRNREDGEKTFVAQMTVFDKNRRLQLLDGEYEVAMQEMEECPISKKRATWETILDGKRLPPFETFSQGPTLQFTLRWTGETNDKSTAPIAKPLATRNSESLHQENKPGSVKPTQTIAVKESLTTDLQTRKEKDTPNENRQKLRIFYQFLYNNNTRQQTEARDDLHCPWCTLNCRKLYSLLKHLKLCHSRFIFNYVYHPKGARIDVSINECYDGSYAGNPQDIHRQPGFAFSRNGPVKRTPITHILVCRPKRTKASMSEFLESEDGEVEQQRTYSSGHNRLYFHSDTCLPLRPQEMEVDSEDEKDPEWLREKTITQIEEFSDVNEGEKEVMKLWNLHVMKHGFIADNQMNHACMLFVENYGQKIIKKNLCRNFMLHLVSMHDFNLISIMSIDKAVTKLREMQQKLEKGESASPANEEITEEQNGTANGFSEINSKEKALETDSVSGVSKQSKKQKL
Method: • EZH2 enzyme complex: 25 ng/uL • Histone H3 peptide substrate: 4 uM • SAM: 2 uM • Reaction time: 300 min Procedures • 1. Each compound disclosed herein was diluted with 1×HMT buffer and transferred to a 384-well assay plate at 3 uL per well; • 2. The EZH2 enzyme solution was prepared with 1×HMT buffer and transferred to the 384-well assay plate at 2 uL per well; • 3. The above assay plate was incubated for 30 min; • 4. A mixture solution of SAM and histone H3 peptide substrate at 2-fold concentration was prepared with 4×HMT buffer; • 5. 5 uL of the mixture solution of SAM and substrate was added to each well of the assay plate to react at room temperature, and the assay plate was sealed with plastic; • 6. After incubation for 5 h, 10 uL of TR-FRET detection buffer containing Tb-labeled antibody and dye-labeled receptor was added to each well of the assay plate; • 7. After incubation for 1 h at room temperature, the assay plate was detected; • 8.

Row | Compound | IC50 [1] [nM] | IC50 ([2]; Homo sapiens, 168 h) [nM] | IC50 [3] [nM] | IC50 [2] [nM]
1 | CCN(c1cc([S+]([O-])C2CCC2)cc(C(=O)NCc2c(C)cc(C)[nH]c2=O)c1C)C1CCOCC1 (stereo not drawn) [Example 9, 5-(cyclobutylsulfinyl)-N-((4,6-dimethyl-2-oxo-1,2-dihydropyridin-3-yl)methyl)-3-(ethyl(tetrahydro-2H-pyran-4-yl)amino)-2-methylbenzamide] | 500 to 1000 | 500 to 1000 | 100 to 1000 | 
2 | CCN(c1cc(O[C@H]2C[C@H](N3CCNCC3)C2)cc(C(=O)NCc2c(C)cc(C)[nH]c2=O)c1C)C1CCOCC1 [Example 18, N-((4,6-dimethyl-2-oxo-1,2-dihydropyridin-3-yl)methyl)-3-(ethyl(tetrahydro-2H-pyran-4-yl)amino)-2-methyl-5-(trans-3-(piperazin-1-yl)cyclobutoxy)benzamide] | 50 to 500 | < 50 | 10 to 100 | 
3 | CCN(c1cc(O[C@H]2C[C@H](N3CCC(C)CC3)C2)cc(C(=O)NCc2c(C)cc(C)[nH]c2=O)c1C)C1CCOCC1 [Example 37, N-((4,6-dimethyl-2-oxo-1,2-dihydropyridin-3-yl)methyl)-3-(ethyl(tetrahydro-2H-pyran-4-yl)amino)-2-methyl-5-(trans-3-(4-methylpiperidin-1-yl)cyclobutoxy)benzamide] | 50 to 500 | < 50 | < 10 | 
4 | CCN1CCN([C@H]2C[C@@H](Oc3cc(C(=O)NCc4c(C)cc(C)[nH]c4=O)c(C)c(N(CC)C4CCOCC4)c3)C2)CC1 [Example 23, N-((4,6-dimethyl-2-oxo-1,2-dihydropyridin-3-yl)methyl)-3-(ethyl(tetrahydro-2H-pyran-4-yl)amino)-5-(cis-3-(4-ethylpiperazin-1-yl)cyclobutoxy)-2-methylbenzamide] | > 1000 | < 50 | 10 to 100 | 
5 | CCN(c1cc(O[C@H]2C[C@H](CN3C[C@@H](C)O[C@@H](C)C3)C2)cc(C(=O)NCc2c(C)cc(C)[nH]c2=O)c1Cl)C1CCOCC1 [Example 30, 2-chloro-N-((4,6-dimethyl-2-oxo-1,2-dihydropyridin-3-yl)methyl)-5-(trans-3-((cis-2,6-dimethylmorpholinyl)methyl)cyclobutoxy)-3-(ethyl(tetrahydro-2H-pyran-4-yl)amino)benzamide] | 50 to 500 |  | 10 to 100 | < 50
6 | Cc1cc(C)c(CNC(=O)c2cc(O[C@H]3C[C@H](N4C[C@@H](C)O[C@@H](C)C4)C3)cc(NC3CCOC3)c2C)c(=O)[nH]1 (stereo partly drawn) [Example 58, N-((4,6-dimethyl-2-oxo-1,2-dihydropyridin-3-yl)methyl)-5-(trans-3-(cis-2,6-dimethylmorpholino)cyclobutoxy)-2-methyl-3-((tetrahydrofuran-3-yl)amino)benzamide] | > 1000 | > 1000 | > 1000 | 
7 | CCN(c1cc(O[C@H]2C[C@@H](CN3CCOCC3)C2)cc(C(=O)NCc2c(C)cc(C)[nH]c2=O)c1C)C1CCOCC1 [Example 6, N-((4,6-dimethyl-2-oxo-1,2-dihydropyridin-3-yl)methyl)-3-(ethyl(tetrahydro-2H-pyran-4-yl)amino)-2-methyl-5-(cis-3-(morpholinylmethyl)cyclobutoxy)benzamide] | 50 to 500 | < 50 | 10 to 100 | 
8 | CCN1CCN([C@H]2C[C@H](Oc3cc(C(=O)NCc4c(C)cc(C)[nH]c4=O)c(C)c(N(CC)C4CCOCC4)c3)C2)CC1 [Example 24, N-((4,6-dimethyl-2-oxo-1,2-dihydropyridin-3-yl)methyl)-3-(ethyl(tetrahydro-2H-pyran-4-yl)amino)-5-(trans-3-(4-ethylpiperazin-1-yl)cyclobutoxy)-2-methylbenzamide] | 50 to 500 | < 50 | < 10 | 
9 | CCN(c1cc(OC2CCC2)cc(C(=O)NCc2c(C)cc(C)[nH]c2=O)c1Cl)C1CCOCC1 [Example 11, 2-chloro-5-cyclobutoxy-N-((4,6-dimethyl-2-oxo-1,2-dihydropyridin-3-yl)methyl)-3-(ethyl(tetrahydro-2H-pyran-4-yl)amino) benzamide] | 50 to 500 | 50 to 500 | 10 to 100 | 
